pIC50: −log10 of the molar value.
Legend:
Cholinesterase [1] = target: Cholinesterase (Equus caballus, UniProt P81908); assay: Inhibition of horse serum BChE after 15 mins by DTNB reagent based assay
Acetylcholinesterase [2] = target: Acetylcholinesterase (Electrophorus electricus, UniProt O42275); assay: Inhibition of electric eel AChE after 15 mins by DTNB reagent based assay
Cholinesterase [3] = target: Cholinesterase (Homo sapiens, UniProt P06276); assay: Inhibition of BChE (unknown origin)
Acetylcholinesterase [4] = target: Acetylcholinesterase (Homo sapiens, UniProt P22303); assay: Inhibition of AChE (unknown origin)
Sequence of Acetylcholinesterase (Homo sapiens, UniProt P22303) (P22303 whole entry): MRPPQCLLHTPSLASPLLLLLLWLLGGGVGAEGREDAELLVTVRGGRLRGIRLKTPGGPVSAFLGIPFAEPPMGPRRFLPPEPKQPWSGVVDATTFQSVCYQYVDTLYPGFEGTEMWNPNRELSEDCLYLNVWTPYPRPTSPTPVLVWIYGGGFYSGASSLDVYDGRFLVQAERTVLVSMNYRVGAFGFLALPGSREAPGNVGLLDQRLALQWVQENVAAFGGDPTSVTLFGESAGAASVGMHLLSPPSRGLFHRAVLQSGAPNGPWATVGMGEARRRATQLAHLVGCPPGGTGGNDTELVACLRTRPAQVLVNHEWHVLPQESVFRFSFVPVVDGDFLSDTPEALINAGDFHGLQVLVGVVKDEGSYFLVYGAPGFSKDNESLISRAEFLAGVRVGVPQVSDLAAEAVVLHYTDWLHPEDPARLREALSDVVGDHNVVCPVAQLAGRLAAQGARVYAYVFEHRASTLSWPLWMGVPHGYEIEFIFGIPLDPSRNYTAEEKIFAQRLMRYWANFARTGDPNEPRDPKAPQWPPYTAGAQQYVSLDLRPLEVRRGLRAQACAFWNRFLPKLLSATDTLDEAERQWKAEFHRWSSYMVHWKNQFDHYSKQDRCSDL

[5] = Selectivity ratio of compound effect for inhibition of horse serum BChE to compound effect for inhibition of electric eel AChE
Acetylcholinesterase [6] = target: T1, Acetylcholinesterase (Rattus norvegicus, UniProt P37136); assay: Inhibition of rat brain AChE
T1 sequence (P37136 whole entry): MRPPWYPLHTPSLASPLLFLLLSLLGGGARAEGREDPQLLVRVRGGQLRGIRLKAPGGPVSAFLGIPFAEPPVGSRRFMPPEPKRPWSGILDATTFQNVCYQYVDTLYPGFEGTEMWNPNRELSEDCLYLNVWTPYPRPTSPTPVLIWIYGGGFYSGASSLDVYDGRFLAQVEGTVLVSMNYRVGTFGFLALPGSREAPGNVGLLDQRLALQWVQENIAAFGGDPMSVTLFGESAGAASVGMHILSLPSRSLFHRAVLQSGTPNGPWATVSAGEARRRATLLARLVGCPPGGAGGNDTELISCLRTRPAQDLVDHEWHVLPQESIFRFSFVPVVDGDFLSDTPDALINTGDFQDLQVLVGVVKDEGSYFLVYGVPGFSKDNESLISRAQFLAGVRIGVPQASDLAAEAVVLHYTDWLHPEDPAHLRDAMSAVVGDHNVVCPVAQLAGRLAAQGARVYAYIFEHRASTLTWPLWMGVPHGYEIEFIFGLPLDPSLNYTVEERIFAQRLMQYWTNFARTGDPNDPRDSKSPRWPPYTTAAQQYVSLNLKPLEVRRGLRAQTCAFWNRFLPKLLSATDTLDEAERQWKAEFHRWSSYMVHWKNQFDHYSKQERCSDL

Butyrylcholinesterase = Butyrylcholinesterase (Rattus norvegicus, UniProt Q9JKC1); assay: Inhibition of rat serum BChE using butyrylthiocholine iodide as substrate measured after 8 mins in presence of AChE inhibitor BW284c51 by Ellman's method
Sequence of Butyrylcholinesterase (Q9JKC1 whole entry): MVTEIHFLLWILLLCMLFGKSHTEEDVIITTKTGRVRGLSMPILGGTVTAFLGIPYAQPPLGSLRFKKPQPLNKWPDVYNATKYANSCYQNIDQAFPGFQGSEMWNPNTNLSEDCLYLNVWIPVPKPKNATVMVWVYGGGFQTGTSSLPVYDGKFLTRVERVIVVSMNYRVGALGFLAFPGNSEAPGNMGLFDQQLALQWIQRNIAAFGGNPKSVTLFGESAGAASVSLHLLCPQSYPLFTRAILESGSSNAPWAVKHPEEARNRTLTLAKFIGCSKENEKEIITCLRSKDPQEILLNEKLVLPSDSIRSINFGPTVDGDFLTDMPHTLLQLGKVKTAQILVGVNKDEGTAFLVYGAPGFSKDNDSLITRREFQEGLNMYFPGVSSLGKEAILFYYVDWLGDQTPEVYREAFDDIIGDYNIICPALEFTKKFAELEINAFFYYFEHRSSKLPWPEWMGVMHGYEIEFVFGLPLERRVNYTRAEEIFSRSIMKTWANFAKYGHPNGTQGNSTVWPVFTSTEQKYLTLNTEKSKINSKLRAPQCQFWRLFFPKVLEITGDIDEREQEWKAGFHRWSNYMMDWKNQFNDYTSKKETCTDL

Acetylcholinesterase [7] = target: T1, Acetylcholinesterase; assay: Inhibition of rat brain AChE using acetylthiocholine iodide as substrate measured after 8 mins in presence of BChE inhibitor ethopropazine by Ellman's method

Sequence of Acetylcholinesterase (Electrophorus electricus, UniProt O42275) (O42275 whole entry): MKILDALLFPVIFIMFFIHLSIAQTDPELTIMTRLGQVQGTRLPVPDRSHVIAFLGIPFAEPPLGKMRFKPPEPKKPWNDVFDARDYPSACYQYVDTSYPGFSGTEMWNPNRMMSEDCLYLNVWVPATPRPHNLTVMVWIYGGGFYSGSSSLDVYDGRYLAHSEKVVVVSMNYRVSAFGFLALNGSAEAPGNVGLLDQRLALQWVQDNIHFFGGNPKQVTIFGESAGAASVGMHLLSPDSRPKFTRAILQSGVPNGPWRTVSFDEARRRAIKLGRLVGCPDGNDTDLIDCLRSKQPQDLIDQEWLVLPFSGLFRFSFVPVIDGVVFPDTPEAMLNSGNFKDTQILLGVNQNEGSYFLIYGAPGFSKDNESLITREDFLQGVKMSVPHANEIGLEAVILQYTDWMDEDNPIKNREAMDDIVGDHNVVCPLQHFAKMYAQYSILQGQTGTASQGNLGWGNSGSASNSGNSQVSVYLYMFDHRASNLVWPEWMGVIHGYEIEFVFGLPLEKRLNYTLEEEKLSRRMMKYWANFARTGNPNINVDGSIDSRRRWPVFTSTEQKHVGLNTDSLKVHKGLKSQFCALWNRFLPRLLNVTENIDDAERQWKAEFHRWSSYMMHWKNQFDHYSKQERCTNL
Sequence of Cholinesterase (Equus caballus, UniProt P81908) (P81908 whole entry): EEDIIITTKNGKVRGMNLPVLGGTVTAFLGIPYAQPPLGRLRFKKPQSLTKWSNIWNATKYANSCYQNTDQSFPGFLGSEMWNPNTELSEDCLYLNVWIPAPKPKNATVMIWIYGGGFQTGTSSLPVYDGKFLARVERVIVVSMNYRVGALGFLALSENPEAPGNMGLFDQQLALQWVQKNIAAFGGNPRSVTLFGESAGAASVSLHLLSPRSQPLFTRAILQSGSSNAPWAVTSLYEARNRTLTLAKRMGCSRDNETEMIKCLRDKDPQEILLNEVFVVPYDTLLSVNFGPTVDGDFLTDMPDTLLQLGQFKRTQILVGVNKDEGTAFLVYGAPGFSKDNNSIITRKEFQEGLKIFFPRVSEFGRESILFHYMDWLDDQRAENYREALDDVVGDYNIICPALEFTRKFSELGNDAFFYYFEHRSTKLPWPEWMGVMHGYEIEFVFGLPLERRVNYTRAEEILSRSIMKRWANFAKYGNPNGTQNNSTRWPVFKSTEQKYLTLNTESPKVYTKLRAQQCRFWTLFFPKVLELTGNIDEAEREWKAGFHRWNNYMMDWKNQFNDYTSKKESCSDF
Sequence of Cholinesterase (Homo sapiens, UniProt P06276) (P06276 whole entry): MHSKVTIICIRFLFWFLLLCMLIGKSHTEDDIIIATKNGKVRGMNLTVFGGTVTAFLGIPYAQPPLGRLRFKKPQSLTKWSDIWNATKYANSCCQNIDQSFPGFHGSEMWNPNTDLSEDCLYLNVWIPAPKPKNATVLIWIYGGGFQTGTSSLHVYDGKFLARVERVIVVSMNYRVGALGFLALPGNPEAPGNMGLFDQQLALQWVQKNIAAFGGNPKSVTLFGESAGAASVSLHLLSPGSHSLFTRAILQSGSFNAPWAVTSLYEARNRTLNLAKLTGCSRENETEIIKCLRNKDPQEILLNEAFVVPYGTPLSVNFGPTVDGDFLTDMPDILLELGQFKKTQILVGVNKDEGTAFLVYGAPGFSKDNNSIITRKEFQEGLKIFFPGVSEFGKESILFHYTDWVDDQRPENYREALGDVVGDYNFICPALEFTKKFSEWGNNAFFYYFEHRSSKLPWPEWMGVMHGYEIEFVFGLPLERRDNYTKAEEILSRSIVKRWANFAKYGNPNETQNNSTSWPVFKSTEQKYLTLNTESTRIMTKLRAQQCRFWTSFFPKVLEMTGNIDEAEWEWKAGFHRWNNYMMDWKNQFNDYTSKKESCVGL

Row | SMILES | pIC50 (Cholinesterase [1]) | pIC50 (Acetylcholinesterase [2]) | further results
1 | O=C(CCCCc1cn(-c2ccnc3cc(Cl)ccc23)nn1)N1CCN(c2c3c(nc4cc(Cl)ccc24)CCCC3)CC1 | < 4.00 | 4.73 | 
2 | CCN(CC)c1ccc(/C=C/c2cc(N3CCCCC3)c3ccccc3n2)cc1 |  |  | pIC50 (Cholinesterase [3]): 6.70; pIC50 (Acetylcholinesterase [4]): 4.19
3 | O=C(CCCCc1cn(-c2ccnc3cc(Cl)ccc23)nn1)NCCNc1c2c(nc3cc(Cl)ccc13)CCCC2 | 5.22 | < 4.00 | Selectivity ratio [5]: 2
4 | C#CCN(C)Cc1ccc(OC(=O)N(C)C)c2ncccc12 |  |  | pIC50 (Acetylcholinesterase [6]): 6.30
5 | Clc1ccc2c(-n3cc(CCCN4CCN(c5c6c(nc7ccccc57)CCCC6)CC4)nn3)ccnc2c1 | 5.44 | 5.31 | 
6 | C1=CCc2c(nc3ccccc3c2NCCCCCCCCNc2ccnc3ccccc23)C1 |  |  | pIC50 (Butyrylcholinesterase): 6.90; pIC50 (Acetylcholinesterase [7]): 8.06
7 | O=C(CCCCc1cn(-c2ccnc3cc(Cl)ccc23)nn1)N1CCN(c2c3c(nc4ccccc24)CCCC3)CC1 | < 4.00 | 4.96 | 
8 | Clc1ccc2c(-n3cc(CCCCN4CCN(c5c6c(nc7cc(Cl)ccc57)CCCC6)CC4)nn3)ccnc2c1 | < 4.00 | 4.71 | 
9 | CN(CCCC(=O)N1CCN(c2c3c(nc4ccccc24)CCCC3)CC1)Cc1cn(-c2ccnc3cc(Cl)ccc23)nn1 | 4.21 | < 4.00 | 
10 | Clc1ccc2c(-n3cc(CCCCN4CCN(c5c6c(nc7ccccc57)CCCC6)CC4)nn3)ccnc2c1 | 4.18 | 5.00 | 
